Here are results for two molecules from patent US20190015467A1, “AGENT FOR PREVENTING OR AMELIORATING UNEVEN SKIN TONE” (KAO CORPORATION, priority 2017, published 2019).

For test [1], the system named is keratinocytes (neonatal foreskin). As to the kind of experiment: Autophagy-activating action: LC3-II protein in keratinocytes by Western blotting. The class given is cell-based, human. The following applies: 48 hours culture, same toosendanin concentration in both media, control solvent (ethanol).
In test [2] the test system is cultured keratinocytes derived from human neonatal foreskin. The experiment in a line: Gene expression by quantitative PCR in Torin 1-treated cultured keratinocytes. Format: cell-based. The following applies: 24 hours culture, ANOVA, Dunnett test p<0.05. The protocol:
Torin 1 was added to cultured keratinocytes derived from human neonatal foreskin, and the mixture was cultured for 24 hours in an environment of 37° C. and 5% CO2. For the cell culture, a culture medium obtained by adding a predetermined growth additive (Humedia KG2, manufactured by KURABO INDUSTRIES LTD.) to Epilife culture medium (Life Technologies) was used. RNA was extracted from the keratinocytes, and the gene expression was analyzed by quantitative PCR using a Taqman probe (Life Technologies).

A further test relates to mTORC1. The experiment in a line: Organ culture of AA elbow skin with Torin 1: immunohistochemical analysis of mTOR phosphorylation. As to conditions: Torin 1 1 μM, tissue culture 5 days; paired t-test p<0.05. The class given is cell-based, human. As to the method:
The technique of immunohistochemical analyses will be described. The sections were immersed in acetone or a 4% PFA/PBS solution for 10 minutes to be fixed. The fixed sections were washed with PBS-T (0.05% Tween-20/PBS) for 5 minutes 3 times in total and were blocked with a 1% BSA/PBS solution for 30 minutes. Subsequently, after the sections were subjected to overnight treatment at 4° C. with a primary antibody and were washed with PBS for 5 minutes 3 times in total, a secondary antibody (Jackson ImmunoResearch, 1:100 or 1:200) fluorescent labeled with FITC, RR-X, or Cy3 was added dropwise thereto, followed by treatment at 37° C. for 30 minutes. […]
The produced preparations were subjected to tissue observation and photographing using an inverted microscope (AxioVision, manufactured by Carl Zeiss Vision International GmbH) or a confocal laser microscope (LSM710, manufactured by Carl Zeiss Vision International GmbH). The captured images were analyzed using an image analysis software, and the expression levels of Pmel17, which is a marker of melanocyte growth and activation, cell proliferation marker Ki67, Filaggrin (FLG), Loricrin (LOR), and Transglutaminase 1 (TGM1), which are keratinization-related factors, were quantitated. Further, using RGB Profile Plot, which is an image analysis software, the fluorescence intensity distribution in the skin depth direction was investigated. […]

Test [3] relates to skin at the elbow site of AA. As to the kind of experiment: Organ culture of AA elbow skin with Torin 1: Fontana-Masson melanin staining and image analysis. Format: cell-based, human. The following applies: Torin 1 1 μM, tissue culture 5 days, vs absence of Torin 1; n=4, paired t-test p<0.05. As to the method:
Meanwhile, the sections were subjected to melanin staining (Melanin Stain), separately. The sections were immersed in a 4% PFA/PBS solution for 10 minutes to be fixed. The fixed sections were washed with distilled water (DDW) for 5 minutes 3 times in total, and thereafter a Fontana-ammonia silver solution (Muto) was added dropwise thereto, followed by treatment at room temperature for 30 minutes. Then, the sections were washed with DDW for 5 minutes 3 times in total, and a Kernechtrot solution (Muto) was added dropwise thereto, followed by treatment for 3 minutes, for nuclear staining. The excess staining solution was washed away with DDW, followed by dehydration, clearing, and mounting with Malinol (Muto).
From skin at the elbow site of four AA women, skin tissues were collected through punch biopsy by a dermatologist. The collected tissues were halved with a scalpel, and the tissues were cultured for 5 days in the presence or absence of mTORC1 inhibitor, Torin 1 (Cayman Chemical, #10997) to a final concentration of 1 μM. […] Further, melanin was visualized by Fontana-Masson staining, and the epidermal stratum corneum thickness and the melanin deposition area were calculated using an image analysis software (Image J).

Test [4] concerns skin at the elbow site of AA. The experiment in a line: Organ culture of AA elbow skin with Torin 1: immunohistochemical analyses of autophagy-related, keratinization and proliferation markers. The class given is cell-based, human. The following applies: Torin 1 1 μM, tissue culture 5 days. As to the method: The technique of immunohistochemical analyses will be described. The sections were immersed in acetone or a 4% PFA/PBS solution for 10 minutes to be fixed. The fixed sections were washed with PBS-T (0.05% Tween-20/PBS) for 5 minutes 3 times in total and were blocked with a 1% BSA/PBS solution for 30 minutes. Subsequently, after the sections were subjected to overnight treatment at 4° C. with a primary antibody and were washed with PBS for 5 minutes 3 times in total, a secondary antibody (Jackson ImmunoResearch, 1:100 or 1:200) fluorescent labeled with FITC, RR-X, or Cy3 was added dropwise thereto, followed by treatment at 37° C. for 30 minutes. Thereafter, the sections were washed with PBS-T for 5 minutes 3 times in total and with PBS for 5 minutes once, mounted by aqueous encapsulant containing a nuclear-staining agent (H-1200: Vector Laboratories). Refer to Table 1 for the type of primary antibody, the tissue fixation conditions, and the concentration used.
The produced preparations were subjected to tissue observation and photographing using an inverted microscope (AxioVision, manufactured by Carl Zeiss Vision International GmbH) or a confocal laser microscope (LSM710, manufactured by Carl Zeiss Vision International GmbH). The captured images were analyzed using an image analysis software, and the expression levels of Pmel17, which is a marker of melanocyte growth and activation, cell proliferation marker Ki67, Filaggrin (FLG), Loricrin (LOR), and Transglutaminase 1 (TGM1), which are keratinization-related factors, were quantitated. Further, using RGB Profile Plot, which is an image analysis software, the fluorescence intensity distribution in the skin depth direction was investigated. The image analysis software used was “Image J” (available from imagej.nih.gov/ij/).
From skin at the elbow site of four AA women, skin tissues were collected through punch biopsy by a dermatologist. The collected tissues were halved with a scalpel, and the tissues were cultured for 5 days in the presence or absence of mTORC1 inhibitor, Torin 1 (Cayman Chemical, #10997) to a final concentration of 1 μM. In the tissue culture, a culture medium obtained by adding 10 v/v % Fetal Bovine Serum (FBS) and antibiotics (Antibiotic-Antimycotic) to Advanced-DMEM was used (both were from Life Technologies). After the completion of culture, frozen samples were rapidly produced, and immunohistochemical analyses were performed by the same procedure as in Example 1 (2) using their sections. Refer to Table 3 for the type of primary antibody, the tissue fixation conditions, and the concentration used. Further, melanin was visualized by Fontana-Masson staining, and the epidermal stratum corneum thickness and the melanin deposition area were calculated using an image analysis software (Image J).

SMILES strings stand for the structures.

Take `CC(=O)O[C@@H]1C[C@H](O)[C@@]23CO[C@@H](O)[C@]1(C)[C@@H]2C[C@@H](O)[C@]1(C)[C@@H]3C(=O)[C@H](OC(C)=O)[C@@]2(C)[C@H](c3ccoc3)C[C@H]3O[C@]321` [toosendanin]: the “LC3-II protein in the cells” value in test [1] was “LC3-II protein-increasing actions”.
For the molecule `CCC(=O)N1CCN(c2ccc(-n3c(=O)ccc4cnc5ccc(-c6cnc7ccccc7c6)cc5c43)cc2C(F)(F)F)CC1` [Torin 1], in test [2] (depending on the dose), the “gene expression of Involucrin (IVL)” value is “statistically significantly increased” and the “gene expression of TGM1” value is “statistically significantly increased”. The “gene expression of SKP2” value in test [2] is given as “statistically significantly reducing”. Further, in the test with mTORC1, the “phosphorylation of mTOR (p-mTOR to mTOR)” value is reported as “inhibition of phosphorylation of mTOR was observed”. In addition, in test [3], the “amount of melanin (melanin deposition area)” value is given as “statistically significantly decreased” and the “epidermal stratum corneum thickness” value is “statistically significantly decreased”. In test [4], the “localization of ATG5-ATG12 in the epidermis” value was “the localization was normalized” and the “localization of ATG16L1 in the epidermis” value was “the localization was normalized”. Further, in test [4] (vs untreated skin), the “distribution of Filaggrin (FLG) in the epidermis” value is “restored to be localized by the epidermal granular layer”, the “distribution of Loricrin (LOR) in the epidermis” value is listed as “restored to be localized by the epidermal granular layer”, the “distribution of Transglutaminase 1 (TGM1) in the epidermis” value is given as “restored to be localized by the epidermal granular layer” and the “proliferating cells (number of Ki67 positive cells)” value was “a decrease in proliferating cells was confirmed”. In test [4] (paired t-test p<0.05), the LC3 protein result is “increased” and the p62 protein aggregation entry is reported as “decreased”.
